system: P. falciparum strain 3D7; assay: In vitro potency against P. falciparum strain 3D7 (SYBR green/DAPI); type: cell-based; conditions: Plasmodium falciparum, reductions in parasitemia, read-out: IC50 values

Compound	IC50 [nM]
NC1=Nc2ccc(OC(F)(F)F)cc2C1(O)c1ccccc1 (stereo not drawn) [Compound 47]	1000 to 5000
NC1=Nc2ccc(-c3ccccc3)cc2C1(O)c1ccccc1 (stereo not drawn) [Compound 87]	100 to 500
CCOc1cc(F)ccc1C1(O)C(N)=Nc2ccc(Cl)cc21 (stereo not drawn) [Compound 225]	1 to 100
Cc1csc2c(C3(O)C(N)=Nc4ccc(Cl)cc43)cccc12 (stereo not drawn) [Compound 136]	1 to 100
NC1=Nc2ccc(Cl)c(Cl)c2C1(O)c1ccccc1 (stereo not drawn) [Compound 40]	100 to 500
COc1ccc2c(c1)C(O)(c1cc(F)cc3ccccc13)C(N)=N2 (stereo not drawn) [Compound 269]	1 to 100
NC1=Nc2ccccc2C1(O)c1ccc(C(F)(F)F)cc1 (stereo not drawn) [Compound 8]	100 to 500
COc1cccc(C2(O)C(N)=Nc3ccc(Cl)cc32)c1 (stereo not drawn) [Compound 23]	100 to 500
NC1=Nc2ccc(Cl)cc2C1(O)c1ccc(C(=O)O)cc1 (stereo not drawn) [Compound 102]	5000 to 15000
CC(C)C1(O)C(N)=Nc2cc(Cl)ccc21 (stereo not drawn) [Compound 230]	100 to 500
NC1=Nc2ccc(Cl)cc2C1(O)c1ccccc1-c1ccccc1Br (stereo not drawn) [Compound 115]	1 to 100
COc1ccc(OC2CCC2)c(C2(O)C(N)=Nc3ccc(Cl)cc32)c1 (stereo not drawn) [Compound 158]	1 to 100
NC1=Nc2ccc(Cl)cc2C1(O)c1cccc2c1oc1ccccc12 (stereo not drawn) [Compound 69]	100 to 500
NC1=Nc2ccc(Cl)cc2C1(O)C1CC1 (stereo not drawn) [Compound 91]	100 to 500
NC1=Nc2ccc(Cl)cc2C1(O)c1cccc2c1OCC2 (stereo not drawn) [Compound 67]	1 to 100
NC1=Nc2cc3c(cc2C1(O)c1ccccc1)OCCO3 (stereo not drawn) [Compound 77]	100 to 500
NC1=Nc2ccccc2C1(O)c1cccc(C(F)(F)F)c1 (stereo not drawn) [Compound 19]	100 to 500
NC1=Nc2ccc(Cl)cc2C1(O)c1cc(F)ccc1N1CCCCCC1 (stereo not drawn) [Compound 175]	1 to 100
CSc1ccc(Cl)cc1C1(O)C(N)=Nc2ccc(Cl)cc21 (stereo not drawn) [Compound 169]	1 to 100
Cn1cc(CC2(O)C(N)=Nc3ccccc32)c2ccccc21 (stereo not drawn) [Compound 128]	100 to 500
Cc1ccc2c(c1)C(O)(Cc1ccccc1)C(N)=N2 (stereo not drawn) [Compound 131]	1 to 100
COc1ncccc1C1(O)C(N)=Nc2ccc(Cl)cc21 (stereo not drawn) [Compound 239]	100 to 500
NC1=Nc2ccc(Cl)cc2C1(O)c1ccc2ccccc2c1 (stereo not drawn) [Compound 24]	100 to 500
COc1ccc2c(c1)C(O)(Cc1ccccc1)C(N)=N2 (stereo not drawn) [Compound 133]	1 to 100
CCCCc1ccc2c(c1)C(O)(c1ccccc1)C(N)=N2 (stereo not drawn) [Compound 48]	500 to 1000

Compound	IC50 [nM]
CN(C)c1cccc(C2(O)C(N)=Nc3ccc(Cl)cc32)c1 (stereo not drawn) [Compound 21]	100 to 500
Cc1ccc2c(c1)C(O)(c1cc(F)cc3ccccc13)C(N)=N2 (stereo not drawn) [Compound 268]	1 to 100
NC1=Nc2ccc(Cl)cc2C1(O)c1ccccc1Cl (stereo not drawn) [Compound 113]	100 to 500
Cn1ccc2cc(F)cc(C3(O)C(N)=Nc4ccc(Cl)cc43)c21 (stereo not drawn) [Compound 272]	100 to 500
Cc1ccc2c(c1)C(O)(C(C)C)C(N)=N2 (stereo not drawn) [Compound 231]	100 to 500
CCOc1cc(F)c(Cl)cc1C1(O)C(N)=Nc2ccc(C)cc21 (stereo not drawn) [Compound 265]	1 to 100
NC1=Nc2c(ccc(Cl)c2Cl)C1(O)c1ccccc1 (stereo not drawn) [Compound 46]	1000 to 5000
NC1=Nc2ccc(Cl)cc2C1(O)c1ccccc1N1CCCCC1 (stereo not drawn) [Compound 130]	100 to 500
Cn1ncc2ccc(C3(O)C(N)=Nc4ccc(Cl)cc43)cc21 (stereo not drawn) [Compound 138]	100 to 500
NC1=Nc2cccc(Cl)c2C1(O)c1cccc2ccccc12 (stereo not drawn) [Compound 127]	500 to 1000
Cc1cccc(C2(O)C(N)=Nc3ccc(Cl)cc32)c1C (stereo not drawn) [Compound 84]	100 to 500
NC1=Nc2ccc(Cl)cc2C1(O)c1cc(F)ccc1OC1CC1 (stereo not drawn) [Compound 232]	1 to 100
NC1=Nc2ccc(Br)cc2C1(O)c1ccccc1 (stereo not drawn) [Compound 41]	1 to 100
NC1=Nc2ccc(Cl)cc2C1(O)c1ccncc1 (stereo not drawn) [Compound 79]	1000 to 5000
Cn1cc2cc(Cl)cc(C3(O)C(N)=Nc4ccc(Cl)cc43)c2n1 (stereo not drawn) [Compound 252]	1 to 100
COc1cc(C2(O)C(N)=Nc3ccc(Cl)cc32)c2ccccc2n1 (stereo not drawn) [Compound 263]	1 to 100
CC(C)(C)Oc1ccccc1C1(O)C(N)=Nc2ccc(Cl)cc21 (stereo not drawn) [Compound 248]	1 to 100
COc1ccc(C#Cc2ccc3c(c2)C(O)(c2ccccc2)C(N)=N3)cc1 (stereo not drawn) [Compound 104]	100 to 500
COC(=O)c1ccc2c(c1)C(O)(c1ccccc1)C(N)=N2 (stereo not drawn) [Compound 110]	500 to 1000
NC1=Nc2ccc(Cl)cc2C1(O)c1ccnc2ccccc12 (stereo not drawn) [Compound 108]	100 to 500
NC1=Nc2c(Cl)cc(Cl)cc2C1(O)c1ccccc1 (stereo not drawn) [Compound 55]	1000 to 5000
COc1ccc(C2(O)C(N)=Nc3ccc(Cl)cc32)cc1 (stereo not drawn) [Compound 72]	500 to 1000
NC1=Nc2ccc(Cl)cc2C1(O)c1cc(Cl)ccc1OC1CC1 (stereo not drawn) [Compound 219]	1 to 100
NC1=Nc2ccc(Cl)cc2C1(O)c1cc(F)ccc1OC1CCOCC1 (stereo not drawn) [Compound 213]	1 to 100
NC1=Nc2ccc(Cl)cc2C1(O)c1cc(Cl)ccc1OC1CCC1 (stereo not drawn) [Compound 157]	1 to 100

Compound	IC50 [nM]
NC1=Nc2ccc(Cl)cc2C1(O)c1cccc2ccoc12 (stereo not drawn) [Compound 150]	1 to 100
CCOc1cnc(OC)cc1C1(O)C(N)=Nc2ccc(Cl)cc21 (stereo not drawn) [Compound 210]	1 to 100
NC1=Nc2ccc(Cl)cc2C1(O)c1ccc(F)c2ccccc12 (stereo not drawn) [Compound 12]	1 to 100
Cc1ccc2c(c1)C(O)(c1cc(Cl)ccc1OC(C)C)C(N)=N2 (stereo not drawn) [Compound 245]	1 to 100
CC(C)Oc1ccc(F)c(C2(O)C(N)=Nc3ccc(Cl)cc32)c1 (stereo not drawn) [Compound 208]	1 to 100
COc1cc(C2(O)C(N)=Nc3ccc(C)cc32)c2ccccc2c1 (stereo not drawn) [Compound 63]	5000 to 15000
NC1=Nc2ccc(Cl)cc2C1(O)c1cc(F)ccc1OC1CCC1 (stereo not drawn) [Compound 164]	1 to 100
NC1=Nc2ccc(Cl)cc2C1(O)c1cccc2ncccc12 (stereo not drawn) [Compound 59]	100 to 500
NC1=Nc2ccccc2C1(O)CC12CC3CC(CC(C3)C1)C2 (stereo not drawn) [Compound 229]	100 to 500
CC(C)Oc1ccccc1[C@@]1(O)C(N)=Nc2ccc(Cl)cc21 [Compound 223]	1 to 100
CCN(CC)c1ccccc1C1(O)C(N)=Nc2ccc(Cl)cc21 (stereo not drawn) [Compound 234]	1 to 100
CC(C)(C)Oc1ccc(F)cc1C1(O)C(N)=Nc2ccc(Cl)cc21 (stereo not drawn) [Compound 194]	1 to 100
COc1ccc(C2(O)C(N)=Nc3ccc(Cl)cc32)c2ccccc12 (stereo not drawn) [Compound 78]	1 to 100
NC1=Nc2ccc(Cl)cc2C1(O)c1cc(F)ccc1SC1CCC1 (stereo not drawn) [Compound 184]	1 to 100
CCOc1ccc(OC)cc1C1(O)C(N)=Nc2ccc(Cl)cc21 (stereo not drawn) [Compound 147]	1 to 100
CN(C)c1ccccc1C1(O)C(N)=Nc2ccc(Cl)cc21 (stereo not drawn) [Compound 80]	1 to 100
CC(C)(C)Sc1ccc(F)c(C2(O)C(N)=Nc3ccc(Cl)cc32)c1 (stereo not drawn) [Compound 188]	100 to 500
CCOc1cnc(OC)c(C2(O)C(N)=Nc3ccc(Cl)cc32)c1 (stereo not drawn) [Compound 211]	1 to 100
NC1=Nc2ccccc2C1(O)c1ccccc1 (stereo not drawn) [Compound 4]	100 to 500
COc1ccc2c(c1)C(O)(C1CC1)C(N)=N2 (stereo not drawn) [Compound 180]	100 to 500
Cn1c(C2(O)C(N)=Nc3ccc(Cl)cc32)nc2cc(Br)ccc21 (stereo not drawn) [Compound 241]	100 to 500
NC1=Nc2ccc(Cl)cc2C1(O)c1cc(Cl)ccc1SC1CCC1 (stereo not drawn) [Compound 189]	1 to 100
Cn1ncc2cccc(C3(O)C(N)=Nc4ccc(Cl)cc43)c21 (stereo not drawn) [Compound 135]	1 to 100
NC1=Nc2ccc(Cl)cc2C1(O)c1ccccc1OC1CCC1 (stereo not drawn) [Compound 151]	1 to 100
NC1=Nc2ccc(Cl)cc2C1(O)c1ccc2ncsc2c1 (stereo not drawn) [Compound 148]	100 to 500

Compound	IC50 [nM]
CC(C)Sc1ccc(F)cc1C1(O)C(N)=Nc2ccc(Cl)cc21 (stereo not drawn) [Compound 183]	1 to 100
NC1=Nc2c(Cl)cccc2C1(O)c1ccccc1 (stereo not drawn) [Compound 35]	1000 to 5000
NC1=Nc2cc(Cl)cc(Cl)c2C1(O)c1ccccc1 (stereo not drawn) [Compound 52]	1000 to 5000
NC1=Nc2ccc(Cl)cc2C1(O)c1ccccc1N1CCSCC1 (stereo not drawn) [Compound 214]	1 to 100
CCOc1ncc(Cl)cc1C1(O)C(N)=Nc2ccc(Cl)cc21 (stereo not drawn) [Compound 242]	1 to 100
NC1=Nc2cc3c(cc2C1(O)c1ccccc1)OCO3 (stereo not drawn) [Compound 57]	100 to 500
NC1=Nc2ccc(Cl)cc2C1(O)c1ccccc1F (stereo not drawn) [Compound 89]	100 to 500
CCOc1cc(C2(O)C(N)=Nc3ccc(Cl)cc32)c(OC)cn1 (stereo not drawn) [Compound 228]	1 to 100
Cc1ccc(CC2(O)C(N)=Nc3ccc(Cl)cc32)s1 (stereo not drawn) [Compound 181]	1 to 100
NC1=Nc2ccc(Cl)cc2C1(O)Cc1nc2ccccc2s1 (stereo not drawn) [Compound 139]	1 to 100
N#Cc1ccccc1C1(O)C(N)=Nc2ccc(Cl)cc21 (stereo not drawn) [Compound 109]	5000 to 15000
NC1=Nc2ccc(-c3cccnc3)cc2C1(O)c1ccccc1 (stereo not drawn) [Compound 99]	5000 to 15000
NC1=Nc2ccc(Cl)cc2C1(O)Cc1cc2ccccc2o1 (stereo not drawn) [Compound 160]	1 to 100
NC1=Nc2ccc(Cl)cc2C1(O)c1ccccc1-c1ccccc1Cl (stereo not drawn) [Compound 114]	100 to 500
NC1=Nc2ccc(Cl)cc2C1(O)c1cccc(F)c1 (stereo not drawn) [Compound 28]	100 to 500
CC(C)Sc1ccccc1C1(O)C(N)=Nc2ccc(Cl)cc21 (stereo not drawn) [Compound 170]	1 to 100
CCSc1ccc(Cl)cc1C1(O)C(N)=Nc2ccc(Cl)cc21 (stereo not drawn) [Compound 171]	1 to 100
NC(=O)c1ccc2c(c1)C(O)(c1ccccc1)C(N)=N2 (stereo not drawn) [Compound 100]	5000 to 15000
NC1=Nc2ccc(Cl)cc2C1(O)c1ccc(C(F)(F)F)cc1 (stereo not drawn) [Compound 16]	100 to 500
CN(C)c1ccc(Cl)cc1C1(O)C(N)=Nc2ccc(Cl)cc21 (stereo not drawn) [Compound 174]	1 to 100
COc1cc(C2(O)C(N)=Nc3ccc(Cl)cc32)c2ccccc2c1 (stereo not drawn) [Compound 45]	5000 to 15000
NC1=Nc2ccc(Cl)cc2C1(O)C1CCC1 (stereo not drawn) [Compound 197]	100 to 500
NC1=Nc2ccc(Cl)cc2C1(O)c1ccc(N2CCOCC2)cc1 (stereo not drawn) [Compound 17]	500 to 1000
CCOc1cnc(Cl)cc1C1(O)C(N)=Nc2ccc(Cl)cc21 (stereo not drawn) [Compound 224]	1 to 100
